From US20240400553A1, “AMINE BASED MATRIPTASE 2 INHIBITORS AND USES THEREOF” (Disc Medicine, Inc., priority 2023, published 2024)

Biological target: T1, Human Recombinant Matriptase 2 (Homo sapiens, UniProt Q8IU80)
T1 construct: made in house
T1 sequence (Q8IU80 1-811): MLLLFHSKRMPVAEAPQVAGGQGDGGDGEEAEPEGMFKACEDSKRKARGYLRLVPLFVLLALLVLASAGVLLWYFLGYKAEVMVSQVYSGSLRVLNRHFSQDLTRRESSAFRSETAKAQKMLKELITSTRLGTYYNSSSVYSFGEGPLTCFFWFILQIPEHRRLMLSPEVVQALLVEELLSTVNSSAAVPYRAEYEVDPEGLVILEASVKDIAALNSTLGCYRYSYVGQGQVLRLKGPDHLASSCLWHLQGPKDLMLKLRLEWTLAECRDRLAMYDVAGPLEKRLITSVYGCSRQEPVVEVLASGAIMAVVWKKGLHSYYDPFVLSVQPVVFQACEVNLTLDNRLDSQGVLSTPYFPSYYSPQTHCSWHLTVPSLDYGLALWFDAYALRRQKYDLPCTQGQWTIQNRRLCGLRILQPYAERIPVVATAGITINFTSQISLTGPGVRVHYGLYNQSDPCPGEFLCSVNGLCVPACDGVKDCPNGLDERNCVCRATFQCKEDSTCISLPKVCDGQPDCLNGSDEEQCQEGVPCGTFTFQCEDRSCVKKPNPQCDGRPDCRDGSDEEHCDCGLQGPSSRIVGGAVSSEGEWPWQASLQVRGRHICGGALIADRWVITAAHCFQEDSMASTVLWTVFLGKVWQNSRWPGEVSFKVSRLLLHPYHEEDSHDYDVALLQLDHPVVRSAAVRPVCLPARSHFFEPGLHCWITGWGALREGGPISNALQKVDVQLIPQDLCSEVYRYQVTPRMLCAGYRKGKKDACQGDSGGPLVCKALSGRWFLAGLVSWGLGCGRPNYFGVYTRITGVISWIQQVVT
Test: Matriptase 2 inhibition, fluorescence based assay (Method I)
Assay type: biochemical
Conditions: Table A; Ki of Matriptase-2; read-out: Mat-2 Ki
Method in brief: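 In-house recombinant enzyme (3.5 nM), preincubated 30 min with compound, then Boc-Gln-Ala-Arg-AMC substrate (62 μM) in 50 mM Tris pH 7.5, 150 mM NaCl, 0.01% gelatin, 1% DMSO, 25 °C. Fluorescence (Ex 360/Em 480 nm) read 60 min after substrate; IC50 from variable-slope sigmoidal fit of % inhibition.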

Row | Ki [µM] | SMILES
1 | ≤ 0.1 | CN1CCC(CN(C)C(=O)c2cc3ccc(CN)nc3n2Cc2cc(NS(=O)(=O)Cc3ccccc3)cc3ccccc23)CC1 [Compound 26, 6-(aminomethyl)-N-methyl-N-[(1-methyl-piperidin-4-yl)methyl]-1-{[3-(phenylmethane-sulfonamido)naphthalen-1-yl]methyl}-1H-pyr-rolo[2,3-b]pyridine-2-carboxamide]
2 | ≤ 0.1 | C[C@@H](COC(=O)c1cc2ccc(CN)nc2n1Cc1cc(NS(=O)(=O)Cc2ccccc2)cc2ccccc12)N(C)C [Compound 27, (2S)-2-(dimethylamino)-propyl 6-(aminomethyl)-1-{[3-(phenylmethane-sulfonamido)naphthalen-1-yl]methyl}-1H-pyr-rolo[2,3-b]pyridine-2-carboxylate]
3 | ≤ 0.1 | CC(C)(C)n1cncc1COC(=O)c1cc2ccc(CN)nc2n1Cc1cc(NS(=O)(=O)Cc2ccccc2)cc2ccccc12 [Compound 29, (1-tert-butyl-1H-imid-azol-5-yl)methyl 6-(aminomethyl)-1-{[3-(phenylmethanesulfon-amido)naphthalen-1-yl]-methyl}-1H-pyrrolo[2,3-b]pyridine-2-carboxylate]
4 | ≤ 0.1 | CCC1(COC(=O)c2cc3ccc(CN)nc3n2Cc2cc(NS(=O)(=O)Cc3ccccc3)cc3ccccc23)CCN(C)CC1 [Compound 31, (4-ethyl-1-methylpiper-idin-4-yl)methyl 6-(aminomethyl)-1-{[3-(phenylmethanesulfon-amido)naphthalen-1-yl]-methyl}-1H-pyrrolo[2,3-b]pyridine-2-carboxylate]
5 | ≤ 0.1 | NCc1ccc2cc(C(=O)OCCN3CCNCC3)n(Cc3cc(NS(=O)(=O)Cc4ccccc4)cc4ccccc34)c2n1 [Compound 33, 2-(piperazin-1-yl)ethyl 6-(aminomethyl)-1-{[3-(phenylmethanesulfon-amido)naphthalen-1-yl]-methyl}-1H-pyrrolo[2,3-b]pyridine-2-carboxylate]
6 | ≤ 0.1 | CN(C)CCCCCOC(=O)c1cc2ccc(CN)nc2n1Cc1cc(NS(=O)(=O)Cc2ccccc2)cc2ccccc12 [Compound 34, 5-(dimethylamino)pentyl 6-(aminomethyl)-1-{[3-(phenylmethanesulfon-amido)naphthalen-1-yl]-methyl}-1H-pyrrolo[2,3-b]pyridine-2-carboxylate]
7 | ≤ 0.1 | CNCCCOC(=O)c1cc2ccc(CN)nc2n1Cc1cc(NS(=O)(=O)Cc2ccccc2)cc2ccccc12 [Compound 35, 3-(methylamino)propyl 6-(aminomethyl)-1-{[3-(phenylmethanesulfon-amido)naphthalen-1-yl]-methyl}-1H-pyrrolo[2,3-b]pyridine-2-carboxylate]
8 | ≤ 0.1 | NCc1ccc2cc(C(=O)OC[C@H]3CNCCO3)n(Cc3cc(NS(=O)(=O)Cc4ccccc4)cc4ccccc34)c2n1 [Compound 36]
9 | ≤ 0.1 | CN(C)C(=O)CCCNC(=O)c1cc2ccc(CN)nc2n1Cc1cc(NS(=O)(=O)Cc2ccccc2)cc2ccccc12 [Compound 38, 4-{[6-(aminomethyl)-1-{[3-(phenylmethane-sulfonamido)naphthalen-1-yl]methyl}-1H-pyr-rolo[2,3-b]pyridin-2-yl]-formamido}-N,N-dimethylbutanamide]
10 | ≤ 0.1 | CN1CCC(CCOC(=O)c2cc3ccc(CN)nc3n2Cc2cc(NS(=O)(=O)Cc3ccccc3)cc3ccccc23)CC1 [Compound 39, 2-(1-methylpiperidin-4-yl)ethyl 6-(aminometh-yl)-1-{[3-(phenylmeth-anesulfonamido)naph-thalen-1-yl]methyl}-1H-pyrrolo[2,3-b]pyridine-2-carboxylate]
11 | ≤ 0.1 | CC(C)(CN)COC(=O)c1cc2ccc(CN)nc2n1Cc1cc(NS(=O)(=O)Cc2ccccc2)cc2ccccc12 [Compound 40, 3-amino-2,2-dimethyl-propyl 6-(aminomethyl)-1-{[3-(phenylmethane-sulfonamido)naphthalen-1-yl]methyl}-1H-pyrrolo-[2,3-b]pyridine-2-car-boxylate]
12 | ≤ 0.1 | CN1CCC(COC(=O)c2cc3ccc(CN)nc3n2Cc2cc(NS(=O)(=O)C(F)(F)c3ccccc3)cc3ccccc23)CC1 [Compound 42, (1-methylpiperidin-4-yl)methyl 6-(aminometh-yl)-1-({3-[difluoro(phen-yl)methanesulfonamido]-naphthalen-1-yl}meth-yl)-1H-pyrrolo[2,3-b]-pyridine-2-carboxylate]
13 | ≤ 0.1 | CC(C)CN1CCC(COC(=O)c2cc3ccc(CN)nc3n2Cc2cc(NS(=O)(=O)Cc3ccccc3)cc3ccccc23)CC1 [Compound 43, [1-(2-methylpropyl)-piperidin-4-yl]methyl 6-(aminomethyl)-1-{[3-(phenylmethanesulfon-amido)naphthalen-1-yl]-methyl}-1H-pyrrolo[2,3-b]pyridine-2-carboxylate]
14 | ≤ 0.1 | CN1CCC(CCNC(=O)c2cc3ccc(CN)nc3n2Cc2cc(NS(=O)(=O)Cc3ccccc3)cc3ccccc23)CC1 [Compound 44, 6-(aminomethyl)-N-[2-(1-methylpiperidin-4-yl)ethyl]-1-{[3-(phenyl-methanesulfonamido)-naphthalen-1-yl]methyl}-1H-pyrrolo[2,3-b]pyr-idine-2-carboxamide]
15 | ≤ 0.1 | CC(C)(C)n1ccnc1COC(=O)c1cc2ccc(CN)nc2n1Cc1cc(NS(=O)(=O)Cc2ccccc2)cc2ccccc12 [Compound 46, (1-tert-butyl-1H-imid-azol-2-yl)methyl 6-(aminomethyl)-1-{[3-(phenylmethanesulfon-amido)naphthalen-1-yl]-methyl}-1H-pyrrolo[2,3-b]pyridine-2-carboxylate]
16 | ≤ 0.1 | CN(C)CCCOC(=O)c1cc2ccc(CN)nc2n1Cc1cc(NS(=O)(=O)Cc2ccccc2)cc2ccccc12 [Compound 47, 3-(dimethylamino)prop-yl 6-(aminomethyl)-1-{[3-(phenylmethane-sulfonamido)naphthalen-1-yl]methyl}-1H-pyr-rolo[2,3-b]pyridine-2-carboxylate]
17 | ≤ 0.1 | CN(C)CCOC(=O)c1cc2ccc(CN)nc2n1Cc1cc(NS(=O)(=O)Cc2ccccc2)cc2ccccc12 [Compound 49, 2-(dimethylamino)ethyl 6-(aminomethyl)-1-{[3-(phenylmethanesulfon-amido)naphthalen-1-yl]-methyl}-1H-pyrrolo[2,3-b]pyridine-2-carboxylate]
18 | ≤ 0.1 | NCc1ccc2cc(C(=O)OCCN3CCOCC3)n(Cc3cc(NS(=O)(=O)Cc4ccccc4)cc4ccccc34)c2n1 [Compound 50, 2-(morpholin-4-yl)ethyl 6-(aminomethyl)-1-{[3-(phenylmethanesulfon-amido)naphthalen-1-yl]-methyl}-1H-pyrrolo[2,3-b]pyridine-2-carboxylate]
19 | ≤ 0.1 | CC(C)N(C)CCOC(=O)c1cc2ccc(CN)nc2n1Cc1cc(NS(=O)(=O)Cc2ccccc2)cc2ccccc12 [Compound 52, 2-[methyl(propan-2-yl)-amino]ethyl 6-(amino-methyl)-1-{[3-(phenyl-methanesulfonamido)-naphthalen-1-yl]methyl}-1H-pyrrolo[2,3-b]pyr-idine-2-carboxylate]
20 | ≤ 0.1 | CNCCOC(=O)c1cc2ccc(CN)nc2n1Cc1cc(NS(=O)(=O)Cc2ccccc2)cc2ccccc12 [Compound 53, 2-(methylamino)ethyl 6-(aminomethyl)-1-{[3-(phenylmethanesulfon-amido)naphthalen-1-yl]-methyl}-1H-pyrrolo[2,3-b]pyridine-2-carboxylate]
21 | ≤ 0.1 | NCc1ccc2cc(C(=O)OCC3(CN)CC3)n(Cc3cc(NS(=O)(=O)Cc4ccccc4)cc4ccccc34)c2n1 [Compound 55, [1-(aminomethyl)cyclo-propyl]methyl 6-(amino-methyl)-1-{[3-(phenyl-methanesulfonamido)-naphthalen-1-yl]methyl}-1H-pyrrolo[2,3-b]pyr-idine-2-carboxylate]
22 | ≤ 0.1 | NCc1ccc2cc(C(=O)OCCOCCN3CCCCC3)n(Cc3cc(NS(=O)(=O)Cc4ccccc4)cc4ccccc34)c2n1 [Compound 56, 2-[2-(piperidin-1-yl)-ethoxy]ethyl 6-(amino-methyl)-1-{[3-(phenyl-methanesulfonamido)-naphthalen-1-yl]methyl}-1H-pyrrolo[2,3-b]pyr-idine-2-carboxylate]
23 | ≤ 0.1 | NCc1ccc2cc(C(N)=O)n(Cc3cc(NS(=O)(=O)Cc4ccccc4)cc4ccccc34)c2n1 [Compound 57, 6-(aminomethyl)-1-{[3-(phenylmethanesulfon-amido)naphthalen-1-yl]-methyl}-1H-pyrrolo[2,3-b]pyridine-2-carboxamide]
24 | ≤ 0.1 | CN(C)CCOCCOC(=O)c1cc2ccc(CN)nc2n1Cc1cc(NS(=O)(=O)Cc2ccccc2)cc2ccccc12 [Compound 58, 2-[2-(dimethylamino)-ethoxy]ethyl 6-(amino-methyl)-1-{[3-(phenyl-methanesulfonamido)-naphthalen-1-yl]methyl}-1H-pyrrolo[2,3-b]pyr-idine-2-carboxylate]
